# Assay results: ChEMBL document CHEMBL1201862, “PubChem BioAssay data set” (2004)
# Activity calls are given as the source filed them.
# How the values were obtained:
# [1] = biological target: Glutathione-S-transferase (Schistosoma japonicum, UniProt Q26513); assay: GST-antibody interaction or FRET quenching – biochemical, TR-FRET, artefact control for Vif-APOBEC3G degradation inhibitor project, dose response (AID 1117362); format: functional
# Estrogen receptor beta = Estrogen receptor beta (Homo sapiens, UniProt Q92731); assay: blockers of SRC-3 recruitment to ERβ – biochemical, ELISA, streptavidin-HRP readout, orthogonal assay, confirmation (AID 1060)
# Estrogen receptor beta, sequence (Q92731 whole entry): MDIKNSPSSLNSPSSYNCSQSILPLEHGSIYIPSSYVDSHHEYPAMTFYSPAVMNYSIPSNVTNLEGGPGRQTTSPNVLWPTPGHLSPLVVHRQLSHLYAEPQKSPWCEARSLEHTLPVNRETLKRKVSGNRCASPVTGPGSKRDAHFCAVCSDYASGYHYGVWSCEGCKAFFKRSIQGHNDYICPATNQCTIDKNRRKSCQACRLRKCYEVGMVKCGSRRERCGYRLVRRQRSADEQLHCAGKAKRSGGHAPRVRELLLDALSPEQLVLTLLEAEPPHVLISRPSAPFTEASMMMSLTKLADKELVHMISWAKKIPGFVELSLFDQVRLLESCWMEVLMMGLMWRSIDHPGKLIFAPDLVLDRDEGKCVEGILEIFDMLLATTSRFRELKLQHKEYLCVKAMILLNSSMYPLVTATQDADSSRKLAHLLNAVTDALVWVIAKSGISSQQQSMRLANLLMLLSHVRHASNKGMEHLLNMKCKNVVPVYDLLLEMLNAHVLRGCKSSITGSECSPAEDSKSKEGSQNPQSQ
# [2] = biological target: FAD-linked sulfhydryl oxidase ALR (Homo sapiens, UniProt P55789); assay: ALR-catalysed DTT oxidation blockers – biochemical, H2O2 detection, luminescence, cherry-pick, dose response (AID 493248)
# FAD-linked sulfhydryl oxidase ALR, sequence (P55789 whole entry): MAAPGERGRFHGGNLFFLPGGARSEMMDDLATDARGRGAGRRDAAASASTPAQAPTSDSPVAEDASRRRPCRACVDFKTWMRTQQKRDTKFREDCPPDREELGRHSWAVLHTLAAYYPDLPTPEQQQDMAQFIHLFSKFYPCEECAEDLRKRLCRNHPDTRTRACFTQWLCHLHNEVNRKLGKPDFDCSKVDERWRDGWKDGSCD
# [3] = biological target: T1, Rac GTPase-activating protein 1 (Homo sapiens, UniProt Q9H0H5); assay: blockers of MgcRacGAP-driven Rac1 GTP hydrolysis – biochemical, ADP Hunter fluorescence, primary and confirmatory, confirmation (AID 624330); format: functional
# T1 sequence (Q9H0H5 whole entry): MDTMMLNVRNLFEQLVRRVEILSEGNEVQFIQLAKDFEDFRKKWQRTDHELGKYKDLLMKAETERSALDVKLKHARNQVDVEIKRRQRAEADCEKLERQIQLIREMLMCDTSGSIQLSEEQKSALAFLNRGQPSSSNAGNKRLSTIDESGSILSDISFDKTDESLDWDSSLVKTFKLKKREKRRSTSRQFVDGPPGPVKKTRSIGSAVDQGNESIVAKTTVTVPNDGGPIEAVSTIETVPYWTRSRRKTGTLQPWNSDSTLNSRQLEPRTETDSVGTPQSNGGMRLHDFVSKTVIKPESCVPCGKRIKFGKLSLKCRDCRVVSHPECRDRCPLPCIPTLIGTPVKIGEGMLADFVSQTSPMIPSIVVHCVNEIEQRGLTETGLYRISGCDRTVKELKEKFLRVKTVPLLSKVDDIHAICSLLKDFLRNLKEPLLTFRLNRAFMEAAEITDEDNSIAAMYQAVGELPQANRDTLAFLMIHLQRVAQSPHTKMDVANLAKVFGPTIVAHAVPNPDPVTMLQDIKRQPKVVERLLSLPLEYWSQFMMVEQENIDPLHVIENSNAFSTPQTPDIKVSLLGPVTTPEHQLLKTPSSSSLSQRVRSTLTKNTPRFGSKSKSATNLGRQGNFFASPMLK
# [4] = biological target: Protein-tyrosine kinase 2-beta (Homo sapiens, UniProt Q14289);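 note: potency of inhibitors of PYK2 kinase phosphorylation of poly-GT substrate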
# Protein-tyrosine kinase 2-beta, sequence (Q14289 whole entry): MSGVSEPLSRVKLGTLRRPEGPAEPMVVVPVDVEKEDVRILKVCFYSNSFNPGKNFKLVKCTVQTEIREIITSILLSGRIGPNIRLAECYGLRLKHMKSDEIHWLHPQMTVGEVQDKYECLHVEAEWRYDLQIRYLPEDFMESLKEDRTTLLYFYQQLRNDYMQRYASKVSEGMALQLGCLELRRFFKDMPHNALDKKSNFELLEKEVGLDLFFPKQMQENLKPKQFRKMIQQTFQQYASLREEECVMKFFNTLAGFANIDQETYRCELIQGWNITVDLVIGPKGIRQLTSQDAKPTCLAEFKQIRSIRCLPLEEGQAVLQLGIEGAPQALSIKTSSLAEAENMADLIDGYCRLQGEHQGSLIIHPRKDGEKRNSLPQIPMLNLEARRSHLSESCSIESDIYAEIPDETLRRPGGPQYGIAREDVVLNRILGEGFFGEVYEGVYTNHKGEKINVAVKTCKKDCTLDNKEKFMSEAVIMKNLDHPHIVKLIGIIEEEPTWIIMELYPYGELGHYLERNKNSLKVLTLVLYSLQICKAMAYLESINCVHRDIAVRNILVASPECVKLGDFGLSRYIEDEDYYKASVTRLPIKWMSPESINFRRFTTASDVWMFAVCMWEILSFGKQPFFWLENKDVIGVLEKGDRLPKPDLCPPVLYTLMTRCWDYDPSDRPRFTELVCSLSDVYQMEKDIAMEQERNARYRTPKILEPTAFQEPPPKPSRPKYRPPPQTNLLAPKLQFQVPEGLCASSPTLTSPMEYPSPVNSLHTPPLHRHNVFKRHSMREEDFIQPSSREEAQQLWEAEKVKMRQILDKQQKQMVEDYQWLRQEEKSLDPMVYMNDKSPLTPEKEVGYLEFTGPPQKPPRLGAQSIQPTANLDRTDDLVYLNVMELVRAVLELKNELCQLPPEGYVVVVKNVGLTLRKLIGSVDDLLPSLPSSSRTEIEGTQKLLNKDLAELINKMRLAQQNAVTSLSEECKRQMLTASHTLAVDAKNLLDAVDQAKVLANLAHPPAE
# [5] = biological target: T2, DNA repair and recombination protein RAD54-like (Homo sapiens, UniProt Q92698); assay: RAD54 Holliday junction migration blockers – biochemical, fluorescence, cherry-picked samples, dose series, confirmation (AID 651657); format: functional
# T2 sequence (Q92698 whole entry): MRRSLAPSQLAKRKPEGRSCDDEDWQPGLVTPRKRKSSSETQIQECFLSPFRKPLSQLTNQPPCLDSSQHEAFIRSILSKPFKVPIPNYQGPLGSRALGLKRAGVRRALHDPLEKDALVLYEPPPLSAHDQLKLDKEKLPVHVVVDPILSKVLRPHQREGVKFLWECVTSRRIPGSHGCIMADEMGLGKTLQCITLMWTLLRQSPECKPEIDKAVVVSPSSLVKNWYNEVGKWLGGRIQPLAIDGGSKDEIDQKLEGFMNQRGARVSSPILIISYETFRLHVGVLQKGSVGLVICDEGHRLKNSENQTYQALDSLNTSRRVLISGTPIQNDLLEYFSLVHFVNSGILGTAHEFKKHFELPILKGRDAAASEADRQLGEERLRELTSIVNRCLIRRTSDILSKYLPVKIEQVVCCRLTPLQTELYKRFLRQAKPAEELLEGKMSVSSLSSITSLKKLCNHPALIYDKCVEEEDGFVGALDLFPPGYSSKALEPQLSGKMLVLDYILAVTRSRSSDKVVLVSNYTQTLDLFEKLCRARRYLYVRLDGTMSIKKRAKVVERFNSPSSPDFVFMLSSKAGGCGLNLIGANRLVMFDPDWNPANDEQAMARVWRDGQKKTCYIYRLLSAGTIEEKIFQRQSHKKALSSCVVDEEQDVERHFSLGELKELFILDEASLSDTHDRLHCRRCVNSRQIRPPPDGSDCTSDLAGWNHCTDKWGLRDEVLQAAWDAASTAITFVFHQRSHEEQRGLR
# Nonstructural protein 1 = Nonstructural protein 1 (Influenza A virus, UniProt Q194T2); format: functional, Influenza A virus (A/California/07/2009(H1N1))
# Nonstructural protein 1, sequence (Q194T2 whole entry): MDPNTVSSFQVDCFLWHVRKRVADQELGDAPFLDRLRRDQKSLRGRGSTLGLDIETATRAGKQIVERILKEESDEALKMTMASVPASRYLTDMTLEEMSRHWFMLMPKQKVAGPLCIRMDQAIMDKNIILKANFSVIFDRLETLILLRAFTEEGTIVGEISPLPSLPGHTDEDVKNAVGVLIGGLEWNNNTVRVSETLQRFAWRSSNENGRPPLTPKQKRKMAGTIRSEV
# [6] = embryonic kidney cell viability loss – CellTiter-Glo luminescence, dry powder, set 20, cytotoxicity control, dose response (AID 1117293); format: functional, cell-based; settings: HEK293
# [7] = hepatoma cell viability loss – CellTiter-Glo luminescence, dry powder, set 20, cytotoxicity control, dose response (AID 1117291); format: functional, cell-based; settings: HepG2
# [8] = biological target: Metabotropic glutamate receptor 7 (Homo sapiens, UniProt Q14831); assay: potentiation of glutamate EC20 at mGlu7 – cell-based, calcium mobilization, Galpha15, dose response (AID 743384); format: functional
# Metabotropic glutamate receptor 7, sequence (Q14831 whole entry): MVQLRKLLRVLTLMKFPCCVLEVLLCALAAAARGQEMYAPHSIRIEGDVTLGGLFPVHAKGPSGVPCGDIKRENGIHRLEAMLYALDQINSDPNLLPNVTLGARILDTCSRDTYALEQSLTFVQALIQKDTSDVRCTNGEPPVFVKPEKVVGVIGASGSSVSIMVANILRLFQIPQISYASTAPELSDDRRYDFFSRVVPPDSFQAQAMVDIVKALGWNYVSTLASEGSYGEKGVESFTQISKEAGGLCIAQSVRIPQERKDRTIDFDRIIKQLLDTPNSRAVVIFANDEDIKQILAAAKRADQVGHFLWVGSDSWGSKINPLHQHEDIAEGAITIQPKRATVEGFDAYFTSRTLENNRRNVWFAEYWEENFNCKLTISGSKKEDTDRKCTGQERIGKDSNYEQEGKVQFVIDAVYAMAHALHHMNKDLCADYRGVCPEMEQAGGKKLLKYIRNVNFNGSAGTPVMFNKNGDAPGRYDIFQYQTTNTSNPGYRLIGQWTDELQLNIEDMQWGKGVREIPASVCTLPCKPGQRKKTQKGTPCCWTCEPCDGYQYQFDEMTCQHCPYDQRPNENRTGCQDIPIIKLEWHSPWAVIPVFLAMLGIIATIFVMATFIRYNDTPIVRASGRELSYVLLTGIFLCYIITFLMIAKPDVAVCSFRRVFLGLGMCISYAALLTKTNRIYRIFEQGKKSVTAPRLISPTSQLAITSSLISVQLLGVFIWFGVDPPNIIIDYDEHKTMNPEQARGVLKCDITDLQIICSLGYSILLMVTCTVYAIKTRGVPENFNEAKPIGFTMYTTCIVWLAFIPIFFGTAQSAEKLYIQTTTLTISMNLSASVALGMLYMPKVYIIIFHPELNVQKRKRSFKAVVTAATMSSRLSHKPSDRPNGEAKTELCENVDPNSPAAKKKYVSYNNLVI
# [9] = toxicity to HepG2 liver cells – cell-based, plate reader, dry powder, set 6, cytotoxicity control, dose response (AID 743311); format: functional
# cells = settings: HEK293
# [10] = RKO cell viability reduction, dose response, CellTiter-Glo luminescence (AID 1117322); format: functional
# [11] = SNU-C1 cell viability reduction, dose response, CellTiter-Glo luminescence (AID 1117323); format: functional, cell-based
# [12] = biological target: T3, Small ubiquitin-related modifier 1 (Homo sapiens, UniProt P63165); assay: SUMO1 protein interaction blockers, potency – biochemical, fluorescence polarization, uHTS hits, dose response (AID 624382); format: functional; settings: read-out: IC50_Mean
# T3 sequence (P63165 whole entry): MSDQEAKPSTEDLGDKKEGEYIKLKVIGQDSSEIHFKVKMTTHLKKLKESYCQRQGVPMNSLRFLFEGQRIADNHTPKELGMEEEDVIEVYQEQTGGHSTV
# [13] = biological target: T3, Small ubiquitin-related modifier 1; assay: SUMO1 protein-protein binding blockers, potency – biochemical, FRET, dose response (AID 624383); format: functional; settings: read-out: IC50_Mean
# [14] = cytotoxicity toward Colo320 cells – cell-based, CellTiter-Glo luminescence, IC50, dose response (AID 1117334); format: functional; settings: COLO 320
# [15] = cytotoxicity toward HCT116 cells – cell-based, CellTiter-Glo luminescence, IC50, dose response (AID 1117332); format: functional; settings: HCT-116
# Streptococcus = assay: GAS UMAA2166 growth inhibition – luminescence, BacTiterGlo, counter-screen for streptokinase expression inhibitor project, dose response (AID 1915); format: functional, organism-based;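 note: potency for reduction of bacterial viability or growth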
# [16] = test system: Streptococcus sp. 'group A'; assay: Streptococcus pyogenes SK(-)GAS viability under kanamycin – luminescence, BacTiterGlo, confirmation, counter-screen for streptokinase expression inhibitor project, dose response (AID 1900); format: functional, organism-based
# Hexokinase = biological target: T4, Hexokinase (Trypanosoma brucei, UniProt Q38C41); assay: Confirmation assay for inhibitors of Trypanosoma brucei hexokinase 1-Analogue-first series. [Related pubchem assays (depositor defined):AID1430, AID1632, AID2516, AID2560, AID2579, AID2600, AID449725, AID492951]; format: functional
# T4 sequence (Q38C41 whole entry): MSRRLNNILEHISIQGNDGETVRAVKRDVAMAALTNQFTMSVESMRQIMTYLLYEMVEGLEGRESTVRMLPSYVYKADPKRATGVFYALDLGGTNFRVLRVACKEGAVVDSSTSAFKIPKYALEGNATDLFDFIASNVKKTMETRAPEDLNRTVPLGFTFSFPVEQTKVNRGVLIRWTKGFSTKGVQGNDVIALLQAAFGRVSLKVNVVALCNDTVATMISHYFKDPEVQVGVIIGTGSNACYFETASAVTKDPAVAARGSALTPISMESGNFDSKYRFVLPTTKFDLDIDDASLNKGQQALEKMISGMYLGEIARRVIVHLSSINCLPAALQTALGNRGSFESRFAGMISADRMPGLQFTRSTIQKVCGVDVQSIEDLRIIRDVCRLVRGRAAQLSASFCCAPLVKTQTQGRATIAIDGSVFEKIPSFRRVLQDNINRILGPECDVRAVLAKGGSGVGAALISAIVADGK
# [17] = cytotoxicity toward HT-29 cells – cell-based, CellTiter-Glo luminescence, IC50, dose response (AID 1117330); format: functional
# [18] = Reduced DLD-1 viability, concentration-response, CellTiter-Glo luminescence (AID 1117352); format: functional
# [19] = CellTiter-Glo luminescence survival assay, SW480 colon tumor line, concentration-response curve, half-maximal inhibitory concentration (AID 1117338); format: functional
# [20] = rise of 2N DNA cells, HeLa – IC50, dose response (AID 1117349); format: functional, cell-based
# [21] = HCT116 cell viability decrease, GSK3B pretreatment – CellTiter-Glo, IC50, dose response (AID 1117339); format: functional; settings: HCT-116
# [22] = rise of 4N DNA cells, HeLa – IC50, dose response (AID 1117351); format: functional, cell-based
# Glutathione-S-transferase, sequence (Q26513 whole entry): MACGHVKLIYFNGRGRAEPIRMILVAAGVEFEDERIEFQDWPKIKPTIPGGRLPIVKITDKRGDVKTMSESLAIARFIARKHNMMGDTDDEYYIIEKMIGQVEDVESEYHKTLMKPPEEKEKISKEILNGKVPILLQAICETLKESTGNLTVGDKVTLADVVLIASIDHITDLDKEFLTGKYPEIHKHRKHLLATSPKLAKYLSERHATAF
structure (smiles),measurement,setting,value
CN1CCN(c2ccc(N)cc2)CC1,IC50,[1],18.4 µM (active)
same,IC50,Estrogen receptor beta,7.13 µM (not active)
same,AC50,[2],3.83 µM (active)
same,IC50,[3],32.3 µM (active)
same,IC50,[4],2.83 µM (active)
same,AC50,[5],21.9 µM (active)
same,IC50,Nonstructural protein 1,53.7 µM (active)
O=S(=O)(Nc1cc(C(F)(F)F)ccc1N1CCCCC1)c1cc(Cl)cc(Cl)c1,AC50,[6],41 µM (active)
same,AC50,[7],45.8 µM (active)
CC(=O)Nc1ccc(SCC(=O)c2cc(C)n(-c3cccc(F)c3)c2C)cc1,EC50,[8],1.6 µM (active)
Sc1nc2cc(Cl)ccc2n1CCOc1ccccc1,AC50,[9],> 52 µM (inactive)
same,AC50,cells,> 52 µM (inactive)
Cc1cc(C(C#N)c2ccc(Cl)cc2)c(Cl)cc1NC(=O)c1cc(I)cc(I)c1O (stereo not drawn) [CLOSANTEL],IC50,[10],0.197 µM (active)
same,IC50,[11],0.0438 µM (active)
same,IC50,[12],> 66.6 µM (inactive)
same,IC50,[13],6.59 µM (active)
same,IC50,[14],0.116 µM (active)
same,IC50,[15],0.0978 µM (active)
same,EC50,Streptococcus,0.092 µM (active)
same,EC50,[16],0.114 µM (active)
same,IC50,Hexokinase,25 µM (inactive)
same,IC50,[17],0.126 µM (active)
same,IC50,[18],0.069 µM (active)
same,IC50,[19],0.046 µM (active)
CC(=O)O[C@@]12CO[C@@H]1C[C@H](O)[C@@]1(C)C(=O)[C@H](O)C3=C(C)[C@@H](OC(=O)[C@H](O)[C@@H](NC(=O)OC(C)(C)C)c4ccccc4)C[C@@](O)([C@@H](OC(=O)c4ccccc4)[C@H]21)C3(C)C [DOCETAXEL],IC50,[20],0.0031 µM (active)
same,IC50,[10],0.001 µM (active)
same,IC50,[11],> 20 µM (inactive)
same,IC50,[21],0.001 µM (active)
same,IC50,[14],0.001 µM (active)
same,IC50,[15],0.001 µM (active)
same,IC50,[17],0.001 µM (active)
same,IC50,[22],0.00335 µM (active)
same,IC50,[19],0.001 µM (active)
